Experiments:
Type in all cases: in vivo
[1] = tested on: lameness during bone spavin; assay: Clinical study in horses with lameness during bone spavin (osteoarthrosis of the distal stage of the tarsus); conditions: for percentage of animals in category Average / percentage of animals in category Favourable / percentage of animals in category Mediocre / percentage of animals in category Poor / percentage of animals in category Very favourable: procedure as Example 1
Method: The study was carried out on 24 horses, the diagnosis of the navicular disease causing lameness being based on the following criteria: • local signs in the palmar region: heat, swelling, pain • functional signs of limping graded on a scale from 0 (no sign of limping) to 4 (trouble in bearing weight when at rest and/or in motion and difficulty in moving around) • a functional test of locomotion after flexing the palmar region, also assessed on a scale from 0 (locomotion not changed by flexure) to 4 (start of suppression of bearing weight) • a radiological examination to assess radiological signs in the palmar region qualitatively.
All the animals received, as a single treatment, disodium tiludronate in the form of an injectable solution administered intravenously at a dose of 0.1 mg/kg, at a weekly administration rate for 6 to 10 weeks. The first day of treatment corresponds to D0.
To assess the effects of the treatment, the animals were reviewed 1 month after D0 (M1), 2 months after D0 (M2) and 6 months after D0 (M6). The effects of the treatment were assessed with regard to: • the local signs, the functional signs and the test of locomotion after flexure as defined during inclusion of the animal into the test • a radiological examination to assess the change in the radiological signs • an assessment of the resumption of the animal's sporting activity.
A clinical study was carried out in order to evaluate the effects of a treatment with disodium tiludronate on horses which develop lameness during bone spavin (which is osteoarthrosis of the distal stage of the tarsus).
The test procedure and the clinical monitoring of the animals were the same as those described in Example 1, except that the local, functional and radiological signs were assessed in the region of the hock.
5 horses were included in this test.
The results obtained were as follows (expressed as a percentage of animals present in each category): […]

[2] = tested on: lameness during navicular disease (podotrochlear syndrome); assay: Clinical study in horses with lameness during navicular disease (podotrochlear syndrome); conditions: for percentage of animals in category Average / percentage of animals in category Favourable / percentage of animals in category Mediocre / percentage of animals in category Poor / percentage of animals in category Very favourable: 0.1 mg/kg i.v. weekly for 6 to 10 weeks
Method: A clinical study was carried out to evaluate the effects of a treatment with disodium tiludronate on horses which develop lameness during navicular disease (also known as podotrochlear syndrome). The study was carried out on 24 horses, the diagnosis of the navicular disease causing lameness being based on the following criteria: • local signs in the palmar region: heat, swelling, pain • functional signs of limping graded on a scale from 0 (no sign of limping) to 4 (trouble in bearing weight when at rest and/or in motion and difficulty in moving around) • a functional test of locomotion after flexing the palmar region, also assessed on a scale from 0 (locomotion not changed by flexure) to 4 (start of suppression of bearing weight) • a radiological examination to assess radiological signs in the palmar region qualitatively. To be included, the animal had to show no signs or lesions of septic arthritis, or any fractures of the bones in the palmar region. Also, it needed to have not received an injection for anti-inflammatory treatment in the joints of the palmar region. The wearing of an orthopaedic shoe was not contra-indicated since most of the animals had been […] for several weeks and were already wearing a shoe of this type. All the animals received, as a single treatment, disodium tiludronate in the form of an injectable solution administered intravenously at a dose of 0.1 mg/kg, at a weekly administration rate for 6 to 10 weeks. The first day of treatment corresponds to D0. To assess the effects of the treatment, the animals were reviewed 1 month after D0 (M1), 2 months after D0 (M2) and 6 months after D0 (M6). The effects of the treatment were assessed with regard to: • the local signs, the functional signs and the test of locomotion after flexure as defined during inclusion of the animal into the test • a radiological examination to assess the change in the radiological signs • an assessment of the resumption of the animal's sporting activity. […] The table below summarizes the effects of the treatment (expressed as a percentage of animals present in each category): […]

[3] = tested on: lameness during enthesopathy of the insertion of the tendons and the ligaments; assay: Clinical study in horses with lameness during enthesopathy of the insertion of the tendons and the ligaments; conditions: procedure as Example 1
Method: The study was carried out on 24 horses, the diagnosis of the navicular disease causing lameness being based on the following criteria: • local signs in the palmar region: heat, swelling, pain • functional signs of limping graded on a scale from 0 (no sign of limping) to 4 (trouble in bearing weight when at rest and/or in motion and difficulty in moving around) • a functional test of locomotion after flexing the palmar region, also assessed on a scale from 0 (locomotion not changed by flexure) to 4 (start of suppression of bearing weight) • a radiological examination to assess radiological signs in the palmar region qualitatively. All the animals received, as a single treatment, disodium tiludronate in the form of an injectable solution administered intravenously at a dose of 0.1 mg/kg, at a weekly administration rate for 6 to 10 weeks. The first day of treatment corresponds to D0. To assess the effects of the treatment, the animals were reviewed 1 month after D0 (M1), 2 months after D0 (M2) and 6 months after D0 (M6). The effects of the treatment were assessed with regard to: • the local signs, the functional signs and the test of locomotion after flexure as defined during inclusion of the animal into the test • a radiological examination to assess the change in the radiological signs • an assessment of the resumption of the animal's sporting activity. […] A clinical study was carried out to evaluate the effects of a treatment with disodium tiludronate on horses which develop lameness during enthesopathy of the insertion of the tendons and the ligaments. The test procedure and the clinical monitoring of the animals were the same as those described in Example 1, except that the local, functional and radiological signs were evaluated in the region of the tendon or ligament insertions at the source of lameness. 6 horses were included in this test. The results obtained were as follows (expressed as a percentage of animals present in each category): […]

[4] = tested on: lameness associated with bone lesions during osteochondrosis; assay: Clinical study in horses with lameness associated with sub-chondral cysts during osteochondrosis; conditions: procedure as Example 1
Method: The study was carried out on 24 horses, the diagnosis of the navicular disease causing lameness being based on the following criteria: • local signs in the palmar region: heat, swelling, pain • functional signs of limping graded on a scale from 0 (no sign of limping) to 4 (trouble in bearing weight when at rest and/or in motion and difficulty in moving around) • a functional test of locomotion after flexing the palmar region, also assessed on a scale from 0 (locomotion not changed by flexure) to 4 (start of suppression of bearing weight) • a radiological examination to assess radiological signs in the palmar region qualitatively. All the animals received, as a single treatment, disodium tiludronate in the form of an injectable solution administered intravenously at a dose of 0.1 mg/kg, at a weekly administration rate for 6 to 10 weeks. The first day of treatment corresponds to D0. To assess the effects of the treatment, the animals were reviewed 1 month after D0 (M1), 2 months after D0 (M2) and 6 months after D0 (M6). The effects of the treatment were assessed with regard to: • the local signs, the functional signs and the test of locomotion after flexure as defined during inclusion of the animal into the test • a radiological examination to assess the change in the radiological signs • an assessment of the resumption of the animal's sporting activity. […] A clinical study was carried out to evaluate the effects of a treatment with disodium tiludronate on horses which develop lameness associated with bone lesions in the form of sub-chondral cysts during osteochondrosis. The test procedure and the clinical monitoring of the animals were the same as those described in Example 1, except that the local, functional and radiological signs were evaluated in the joints affected by osteochondrosis. 5 horses were included in this test. The results obtained were as follows (expressed as a percentage of animals present in each category): […]

[5] = Examination at M1 (1 month after D0)
[6] = Examination at M2 (2 months after D0)
[7] = Examination at M6 (6 months after D0)

O=P(O)(O)C(Sc1ccc(Cl)cc1)P(=O)(O)O [disodium tiludronate, 4-chlorophenylthiomethylenebisphosphonic acid]
percentage of animals in category Average [1, 5]: 60% | percentage of animals in category Favourable [1, 5]: 40% | percentage of animals in category Mediocre [1, 5]: 0% | percentage of animals in category Poor [1, 5]: 0% | percentage of animals in category Very favourable [1, 5]: 0% | percentage of animals in category Average [1, 6]: 0% | percentage of animals in category Favourable [1, 6]: 60% | percentage of animals in category Mediocre [1, 6]: 0% | percentage of animals in category Poor [1, 6]: 0% | percentage of animals in category Very favourable [1, 6]: 40% | percentage of animals in category Average [1, 7]: 20% | percentage of animals in category Favourable [1, 7]: 20% | percentage of animals in category Mediocre [1, 7]: 0% | percentage of animals in category Poor [1, 7]: 20% | percentage of animals in category Very favourable [1, 7]: 40% | change in lameness induced by bone spavin after treatment ([1]; after treatment): favourable to very favourable in most of the animals | percentage of animals in category Average [2, 5]: 38% | percentage of animals in category Favourable [2, 5]: 46% | percentage of animals in category Mediocre [2, 5]: 4% | percentage of animals in category Poor [2, 5]: 4% | percentage of animals in category Very favourable [2, 5]: 8% | percentage of animals in category Average [2, 6]: 26% | percentage of animals in category Favourable [2, 6]: 43% | percentage of animals in category Mediocre [2, 6]: 5% | percentage of animals in category Poor [2, 6]: 0% | percentage of animals in category Very favourable [2, 6]: 26% | percentage of animals in category Average [2, 7]: 27% | percentage of animals in category Favourable [2, 7]: 46% | percentage of animals in category Mediocre [2, 7]: 9% | percentage of animals in category Poor [2, 7]: 0% | percentage of animals in category Very favourable [2, 7]: 18% | time at which the benefit of the treatment is optimal ([2]; after administration of the treatment is started): 2 months | share of animals with complete recovery ([2]; at the end of administration of the treatment): a quarter of the animals | radiological examination of the palmar region ([2]; pathological radiological signs): did not reveal any change in kinetics of the pathological radiological signs | percentage of animals in category Average [3, 5]: 33% | percentage of animals in category Favourable [3, 5]: 50% | percentage of animals in category Mediocre [3, 5]: 17% | percentage of animals in category Poor [3, 5]: 0% | percentage of animals in category Very favourable [3, 5]: 0% | percentage of animals in category Average [3, 6]: 33% | percentage of animals in category Favourable [3, 6]: 67% | percentage of animals in category Mediocre [3, 6]: 0% | percentage of animals in category Poor [3, 6]: 0% | percentage of animals in category Very favourable [3, 6]: 0% | percentage of animals in category Average [3, 7]: 0% | percentage of animals in category Favourable [3, 7]: 40% | percentage of animals in category Mediocre [3, 7]: 20% | percentage of animals in category Poor [3, 7]: 0% | percentage of animals in category Very favourable [3, 7]: 40% | percentage of animals in category Average [4, 5]: 40% | percentage of animals in category Favourable [4, 5]: 0% | percentage of animals in category Mediocre [4, 5]: 0% | percentage of animals in category Poor [4, 5]: 20% | percentage of animals in category Very favourable [4, 5]: 40% | percentage of animals in category Average [4, 6]: 20% | percentage of animals in category Favourable [4, 6]: 40% | percentage of animals in category Mediocre [4, 6]: 0% | percentage of animals in category Poor [4, 6]: 20% | percentage of animals in category Very favourable [4, 6]: 20% | percentage of animals in category Average [4, 7]: 0% | percentage of animals in category Favourable [4, 7]: 0% | percentage of animals in category Mediocre [4, 7]: 40% | percentage of animals in category Poor [4, 7]: 0% | percentage of animals in category Very favourable [4, 7]: 60%

— US7915239B2, “Process for treating lameness administration of a bisphosphonic acid derivative” (Ceva Sante Animale, priority 1998, dated 2011)
